{
  "source": "patent US5539123A",
  "about": "“Low molecular weight thiocarbamates as inhibitors of elastase, uses and method of synthesis” (University of Kentucky Research Foundation, priority 1994, dated 1996)",
  "tested_on": "Zymosan Induced Inflammation",
  "assay": "Zymosan-induced paw inflammation (arthritis) in rats, percent volume increase of the paw",
  "assay_type": "in vivo, rat",
  "conditions": "for % Oedema Volume change: 3.6 × 10^-5 mg/g IP vs control",
  "source_text": "A reversible arthritic condition was induced according to known procedures for the Zymosan-induced arthritis (See J. P. Tarayre, A. Delphon, et al., Pharmacological studies in zymosan inflammation in rats and mice, I: Zymosan-induced paw edema in rat and mice, Pharmacological Research, 21, (#4) 375-384 (1989); Takuo Sato, Yoshitaka Ino, et al., Inhibitory effects of a novel synthetic protease inhibitor (FUT-175), on the paw edema in rats and Zymosan-induced compliment activation in vitro, Japan J. Pharmacol., 42,587-589 (1986); David K. Gremmell, et al., Comparative effects of drugs on four paw edema models on the rat, Agents and Actions 4, (#1) 107-116 (1979); and D. C. Keystone, et al., Zymosan-induced arthritis: A model of chronic proliferative arthritis following activation of the alternative pathway of compliment, Arthritis and Rheumatism 20 (#7) 1396-1401 (1977)).\nEach rat (250 g each) was kept in a restraining cage with light ether anesthesia until the administration of the drug. The procedure involves the intramuscular (IM) injection of 1 mg of Zymosan in 50 μL (microliters) of normal saline in the pad of a hind paw of the rat. Swelling becomes evident within 20 minutes and reaches a maximum within 1.5 hours. The swelling disappears after 24 hours. In the Figures the reversal to normal size of the paw within 24 hours is not shown. The degree of swelling is measured by a water displacement method and the percent (%) of volume increase of the paw is plotted against time (see J. P. Tarayre, A. Delphon, et al., Pharmacological studies in zymosan inflammation in rats and mice. I: Zymosan-induced paw edema in rat and mice, Pharmaco-logical Research, 21, (#4) 375-384 (1989); Takuo Sato, Yoshitaka Ino, et al., Inhibitory effects of a novel synthetic protease inhibitor (FUT-175), on the paw edema in rats and Zymosan-induced compliment activation in vitro, Japan J. Pharmacol., 42, 587-589 (1986)).\nControl was conducted by injecting I.P. 100 μl of propylene glycol (the vehicle) 15 min. prior to Zymosan administration. […] Data from tables 1 and 1a are plotted in FIGS. 1 and 1a respectively.\nIn the experimental procedure the drug [PC-16, […] (FIG. 2) or 90 μg/rat (FIG. 3)] is dissolved in 100 μL of propylene glycol and is injected IP to the rats. Fifteen minutes later the Zymosan (1mg/50 μL of normal saline) solution is injected IM into the paw of the rats. The degree of swelling is subsequently measured at various time intervals for a period of 24 hours and is reported up to 4 hours.",
  "key": {"[1]": {"conditions": "3.6 × 10^-4 mg/g IP, time (min) = first number of the line"}},
  "note": "“And” between values parts separate entries of the source, which are not always exact repeats. Identical values can stand only once. “Also recorded” adds a separate entry of the source.",
  "data": [
    {"smiles": "CCCCNC(=O)Sc1nnnn1-c1ccccc1", "note": "[PC-16]", "values": [
      {"measurement": "% Volume Increase", "setting": "3.6 × 10^-4 mg/g IP, 205 min", "value": 3.41, "unit": "%"},
      {"measurement": "% Volume Increase, Mean of 3 experiments", "setting": "3.6 × 10^-4 mg/g IP, 210 min", "value": 3.48, "unit": "%"},
      {"measurement": "% Volume Increase, Mean of 3 experiments", "setting": "3.6 × 10^-4 mg/g IP, 220 min", "value": 3.30, "unit": "%"},
      {"measurement": "% Volume Increase", "setting": "3.6 × 10^-4 mg/g IP, 225 min", "value": 3.32, "unit": "%"},
      {"measurement": "% Volume Increase, Mean of 3 experiments", "setting": "3.6 × 10^-4 mg/g IP, 230 min", "value": 3.34, "unit": "%"},
      {"measurement": "% Volume Increase, Mean of 3 experiments", "setting": "3.6 × 10^-4 mg/g IP, 240 min", "value": 2.93, "unit": "%"},
      {"measurement": "% Volume Increase, Experiment #3", "setting": "[1]", "value": "0.00% and 1.02% and 1.55% and 2.18% and 2.75% and 3.44% and 3.50%"},
      {"measurement": "Volume, Experiment #3", "setting": "[1]", "value": "1.65 mL and 1.67 mL and 1.68 mL and 1.69 mL and 1.70 mL and 1.71 mL"},
      {"measurement": "% Oedema Volume change", "setting": "10 min", "value": 28.0, "unit": "%"},
      {"measurement": "% Oedema Volume change", "setting": "20 min", "value": -42.8, "unit": "%"},
      {"measurement": "% Oedema Volume change", "setting": "30 min", "value": -54.1, "unit": "%"},
      {"measurement": "% Oedema Volume change", "setting": "40 min", "value": -58.3, "unit": "%"},
      {"measurement": "% Oedema Volume change", "setting": "50 min", "value": -60.8, "unit": "%"},
      {"measurement": "% Oedema Volume change", "setting": "60 min", "value": -65.8, "unit": "%"},
      {"measurement": "% Oedema Volume change", "setting": "65 min", "value": -64.8, "unit": "%"},
      {"measurement": "% Oedema Volume change", "setting": "70 min", "value": -65.7, "unit": "%"},
      {"measurement": "% Oedema Volume change", "setting": "80 min", "value": -63.9, "unit": "%"},
      {"measurement": "% Oedema Volume change", "setting": "95 min", "value": -66.4, "unit": "%"},
      {"measurement": "% Oedema Volume change", "setting": "100 min", "value": -68.2, "unit": "%"},
      {"measurement": "% Oedema Volume change", "setting": "105 min", "value": -68.7, "unit": "%"},
      {"measurement": "% Oedema Volume change", "setting": "115 min", "value": -69.9, "unit": "%"},
      {"measurement": "% Oedema Volume change", "setting": "120 min", "value": -69.6, "unit": "%"},
      {"measurement": "% Oedema Volume change", "setting": "130 min", "value": -68.8, "unit": "%"},
      {"measurement": "% Oedema Volume change", "setting": "135 min", "value": -65.8, "unit": "%"},
      {"measurement": "% Oedema Volume change", "setting": "145 min", "value": -64.6, "unit": "%"},
      {"measurement": "% Oedema Volume change", "setting": "150 min", "value": -67.7, "unit": "%"},
      {"measurement": "% Oedema Volume change", "setting": "160 min", "value": -67.4, "unit": "%"},
      {"measurement": "% Oedema Volume change", "setting": "175 min", "value": -66.7, "unit": "%"},
      {"measurement": "% Oedema Volume change", "setting": "190 min", "value": -69.2, "unit": "%"},
      {"measurement": "% Oedema Volume change", "setting": "200 min", "value": -67.6, "unit": "%"},
      {"measurement": "% Oedema Volume change", "setting": "205 min", "value": -65.6, "unit": "%"},
      {"measurement": "% Oedema Volume change", "setting": "210 min", "value": -63.4, "unit": "%"},
      {"measurement": "% Oedema Volume change", "setting": "220 min", "value": -61.2, "unit": "%"},
      {"measurement": "% Oedema Volume change", "setting": "225 min", "value": -61.9, "unit": "%"},
      {"measurement": "% Oedema Volume change", "setting": "240 min", "value": -62.7, "unit": "%"},
      {"measurement": "% Volume Increase, Mean of 3 experiments", "setting": "3.6 × 10^-5 mg/g IP, 0 min", "value": 0.00, "unit": "%"},
      {"measurement": "% Volume Increase, Mean of 3 experiments", "setting": "3.6 × 10^-5 mg/g IP, 10 min", "value": 12.2, "unit": "%"},
      {"measurement": "% Volume Increase, Mean of 3 experiments", "setting": "3.6 × 10^-5 mg/g IP, 20 min", "value": 16.3, "unit": "%"},
      {"measurement": "% Volume Increase, Mean of 3 experiments", "setting": "3.6 × 10^-5 mg/g IP, 30 min", "value": 17.3, "unit": "%"},
      {"measurement": "% Volume Increase, Mean of 3 experiments", "setting": "3.6 × 10^-5 mg/g IP, 40 min", "value": 18.8, "unit": "%"},
      {"measurement": "% Volume Increase, Mean of 3 experiments", "setting": "3.6 × 10^-5 mg/g IP, 50 min", "value": 19.1, "unit": "%"},
      {"measurement": "% Volume Increase, Mean of 3 experiments", "setting": "3.6 × 10^-5 mg/g IP, 60 min", "value": 19.5, "unit": "%"},
      {"measurement": "% Volume Increase, Mean of 3 experiments", "setting": "3.6 × 10^-5 mg/g IP, 65 min", "value": 19.8, "unit": "%"},
      {"measurement": "% Volume Increase, Mean of 3 experiments", "setting": "3.6 × 10^-5 mg/g IP, 70 min", "value": 20.0, "unit": "%"},
      {"measurement": "% Volume Increase, Mean of 3 experiments", "setting": "3.6 × 10^-5 mg/g IP, 80 min", "value": 20.5, "unit": "%"},
      {"measurement": "% Volume Increase, Mean of 3 experiments", "setting": "3.6 × 10^-5 mg/g IP, 95 min", "value": 19.7, "unit": "%"},
      {"measurement": "% Volume Increase, Mean of 3 experiments", "setting": "3.6 × 10^-5 mg/g IP, 100 min", "value": 18.6, "unit": "%"},
      {"measurement": "% Volume Increase, Mean of 3 experiments", "setting": "3.6 × 10^-5 mg/g IP, 105 min", "value": 18.4, "unit": "%"},
      {"measurement": "% Volume Increase, Mean of 3 experiments", "setting": "3.6 × 10^-5 mg/g IP, 115 min", "value": 17.9, "unit": "%"},
      {"measurement": "% Volume Increase, Mean of 3 experiments", "setting": "3.6 × 10^-5 mg/g IP, 120 min", "value": 17.7, "unit": "%"},
      {"measurement": "% Volume Increase, Mean of 3 experiments", "setting": "3.6 × 10^-5 mg/g IP, 130 min", "value": 17.7, "unit": "%"},
      {"measurement": "% Volume Increase, Mean of 3 experiments", "setting": "3.6 × 10^-5 mg/g IP, 135 min", "value": 17.7, "unit": "%"},
      {"measurement": "% Volume Increase, Mean of 3 experiments", "setting": "3.6 × 10^-5 mg/g IP, 145 min", "value": 17.7, "unit": "%"},
      {"measurement": "% Volume Increase, Mean of 3 experiments", "setting": "3.6 × 10^-5 mg/g IP, 150 min", "value": 15.6, "unit": "%"},
      {"measurement": "% Volume Increase, Mean of 3 experiments", "setting": "3.6 × 10^-5 mg/g IP, 160 min", "value": 15.2, "unit": "%"},
      {"measurement": "% Volume Increase, Mean of 3 experiments", "setting": "3.6 × 10^-5 mg/g IP, 175 min", "value": 14.4, "unit": "%"},
      {"measurement": "% Volume Increase, Mean of 3 experiments", "setting": "3.6 × 10^-5 mg/g IP, 190 min", "value": 12.6, "unit": "%"},
      {"measurement": "% Volume Increase, Mean of 3 experiments", "setting": "3.6 × 10^-5 mg/g IP, 200 min", "value": 13.3, "unit": "%"},
      {"measurement": "% Volume Increase, Mean of 3 experiments", "setting": "3.6 × 10^-5 mg/g IP, 205 min", "value": 13.5, "unit": "%"},
      {"measurement": "% Volume Increase, Mean of 3 experiments", "setting": "3.6 × 10^-5 mg/g IP, 210 min", "value": 13.6, "unit": "%"},
      {"measurement": "% Volume Increase, Mean of 3 experiments", "setting": "3.6 × 10^-5 mg/g IP, 220 min", "value": 13.6, "unit": "%"},
      {"measurement": "% Volume Increase, Mean of 3 experiments", "setting": "3.6 × 10^-5 mg/g IP, 225 min", "value": 12.4, "unit": "%"},
      {"measurement": "% Volume Increase, Mean of 3 experiments", "setting": "3.6 × 10^-5 mg/g IP, 240 min", "value": 12.1, "unit": "%"},
      {"measurement": "oedema reduction of rat paw", "setting": "injected prior to Zymosan, compared with control", "value": "impressive oedema reduction; also recorded: impressive reduction in edema swelling"}
    ]}
  ]
}
